Experimental data: patent US12662489B2 (Sitryx Therapeutics Limited, priority 2023, dated 2026)

Legend:
[1] = target: T1, MTHFD1 recombinant human enzyme (Homo sapiens, UniProt P11586); experiment: MTHFD1 inhibition assay (NAD(P)H-Glo luminescence); conditions: MTHFD1 IC50, recombinant human enzyme 200 nM, NADP, band
T1 sequence (P11586 2-291 limits assumed): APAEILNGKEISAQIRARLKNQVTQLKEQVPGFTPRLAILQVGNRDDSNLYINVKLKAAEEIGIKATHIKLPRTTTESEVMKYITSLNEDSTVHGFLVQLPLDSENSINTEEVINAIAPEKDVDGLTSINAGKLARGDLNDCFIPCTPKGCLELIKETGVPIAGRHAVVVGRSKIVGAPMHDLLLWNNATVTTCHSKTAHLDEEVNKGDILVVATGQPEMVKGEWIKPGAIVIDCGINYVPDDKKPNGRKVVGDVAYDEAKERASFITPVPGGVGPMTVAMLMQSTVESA

[2] = target: T2, MTHFD2 recombinant human enzyme (Homo sapiens, UniProt P13995); experiment: MTHFD2 inhibition assay (NAD(P)H-Glo luminescence); conditions: for MTHFD1/MTHFD2 IC50 ratio: selectivity of MTHFD2 inhibition over MTHFD1, band
T2 sequence (P13995 36-350): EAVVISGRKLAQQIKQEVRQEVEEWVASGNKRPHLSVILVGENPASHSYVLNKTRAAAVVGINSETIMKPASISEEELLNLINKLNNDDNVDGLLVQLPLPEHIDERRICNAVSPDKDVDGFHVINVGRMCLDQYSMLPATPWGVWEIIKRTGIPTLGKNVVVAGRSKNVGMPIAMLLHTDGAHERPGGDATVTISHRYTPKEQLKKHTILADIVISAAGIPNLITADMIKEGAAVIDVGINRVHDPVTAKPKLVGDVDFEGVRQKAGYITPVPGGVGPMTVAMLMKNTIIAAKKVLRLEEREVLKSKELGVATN

human CD4+ T cells = experiment: Human CD4+ T-cell proliferation assay (CFSE, CD3/28 beads); conditions: read-out: Proliferation IC50
Method: Cells were incubated at room temperature for 8 minutes in a rotator in the dark. 13 mL cRPMI was added to each tube and cells were centrifuged at 500×g for 4 minutes at room temperature before pellets were resuspended in 10 mL cRPMI. Cells were counted using the Auto2000 Cellometer and AO/PI viability stain and concentration adjusted to 0.6×10^6 cells/mL in cRPMI. […] Control wells were included for flow cytometry and edge wells were filled with 200 μL 1×dPBS. Cells were incubated at 37° C., 5% CO2 for 2 days before compound treatment. […] Cells were incubated at 37° C., 5% CO2 for a further 2 days prior to flow staining and supernatant harvest.
On the final day plates were centrifuged at 500×g for 4 minutes at room temperature. 125 μL of supernatants were transferred to a V bottom 96 well polystyrene plate and stored at −80° C. Plates were gently vortexed to disrupt the cell pellets before 125 μL 1×PBS was added to each well. Plates were centrifuged at 500×g for 4 minutes at room temperature and supernatants removed from the plates by aspirating. Plates were gently vortexed and 30 μL of live/dead stain (Invitrogen, L34975) in 1×dPBS was added and incubated for 15 minutes in the dark at 4° C. […] 100 μL of flow cytometry buffer was added and plates were centrifuged at 500×g for 4 minutes before supernatants were aspirated from the plates. Wells were resuspended in 200 μL flow cytometry buffer and plates stored at 4° C. before being run on the flow cytometer.
Data was analysed using FlowJo and the compensation matrix applied to all samples. The gates were set using unstained and unstimulated samples.

Structure (SMILES)	IC50 [1] [nM]	IC50 [2] [nM]	MTHFD1/MTHFD2 IC50 ratio [2]	IC50 (human CD4+ T cells) [nM]
COC[C@H]1CN(c2cc(Cl)c3c4c(c(=O)oc3c2C)CN(C(=O)c2cc(N(C)C)c(C(=O)NS(=O)(=O)N(C)C)cc2Cl)CC4)CCN1C [Example 291, (R)-5-chloro-4-(10-chloro-8-(3-(methoxymethyl)-4-methylpiperazin-1-yl)-7-methyl-5-oxo-1,3,4,5-tetrahydro-2H-chromeno[3,4-c]pyridine-3-carbonyl)-2-(dimethylamino)-N-(N,N-dimethylsulfamoyl)benzamide]	1000 to 5000	10 to 100	J (>30)	30 to 100
COC[C@H]1CN(c2cc(C)c3c4c(c(=O)oc3c2C)CN(C(=O)c2ccc(C(=O)NS(=O)(=O)N3C5CCC3CC5)c(C)c2F)CC4)CCN1C [Example 241]	100 to 1000	10 to 100	H (>9.0 to 30)	100 to 1000
CCOc1cc(C(=O)N2CCc3c(c(=O)oc4c(C)c(N5CCN(C)[C@@H](COC)C5)cc(C)c34)C2)c(F)cc1C(=O)NS(=O)(=O)N1C2CCC1CC2 [Example 218, (R)-N-((7-azabicyclo[2.2.1]heptan-7-yl)sulfonyl)-2-ethoxy-5-fluoro-4-(8-(3-(methoxymethyl)-4-methylpiperazin-1-yl)-7,10-dimethyl-5-oxo-1,3,4,5-tetrahydro-2H-chromeno[3,4-c]pyridine-3-carbonyl)benzamide]	100 to 1000	10 to 100	H (>9.0 to 30)	30 to 100
[2H]C([2H])([2H])Oc1cc(C(=O)N2CCc3c(c(=O)oc4c(C)c(N5CCN(C)[C@@H](COC)C5)cc(Cl)c34)C2)c(F)cc1C(=O)NS(=O)(=O)N1C2CCC1CC2 [Example 326, (R)-N-((7-azabicyclo[2.2.1]heptan-7-yl)sulfonyl)-4-(10-chloro-8-(3-(methoxymethyl)-4-methylpiperazin-1-yl)-7-methyl-5-oxo-1,3,4,5-tetrahydro-2H-chromeno[3,4-c]pyridine-3-carbonyl)-5-fluoro-2-(methoxy-d3)benzamide]	1000 to 5000	1 to 10	J (>30)	100 to 1000
COC[C@H]1CN(c2cc(C)c3c4c(c(=O)oc3c2C)CN(C(=O)c2cc(N)c(C(=O)NS(=O)(=O)N3CCCC3)cc2F)CC4)CCN1C [Example 196, (R)-2-amino-5-fluoro-4-(8-(3-(methoxymethyl)-4-methylpiperazin-1-yl)-7,10-dimethyl-5-oxo-1,3,4,5-tetrahydro-2H-chromeno[3,4-c]pyridine-3-carbonyl)-N-(pyrrolidin-1-ylsulfonyl)benzamide]	1000 to 5000	10 to 100	J (>30)	> 5000
COC[C@H]1CN(c2cc(C)c3c4c(c(=O)oc3c2C)CN(C(=O)c2ccc(C(=O)NS(=O)(=O)N3CCCC3)c(F)c2)CC4)CCN1C [Example 265, (R)-2-fluoro-4-(8-(3-(methoxymethyl)-4-methylpiperazin-1-yl)-7,10-dimethyl-5-oxo-1,3,4,5-tetrahydro-2H-chromeno[3,4-c]pyridine-3-carbonyl)-N-(pyrrolidin-1-ylsulfonyl)benzamide]	100 to 1000	1 to 10	J (>30)	100 to 1000
COC[C@H]1CN(c2cc(C)c3c4c(c(=O)oc3c2C)CN(C(=O)c2ccc(C(=O)NS(=O)(=O)N3CCCC3)cc2)CC4)CCN1C [Example 195, (R)-4-(8-(3-(methoxymethyl)-4-methylpiperazin-1-yl)-7,10-dimethyl-5-oxo-1,3,4,5-tetrahydro-2H-chromeno[3,4-c]pyridine-3-carbonyl)-N-(pyrrolidin-1-ylsulfonyl)benzamide]	1000 to 5000	10 to 100	J (>30)	1000 to 5000
CCOc1cc(C(=O)N2CCc3c(c(=O)oc4c(C)c(N5CCN(C)[C@@H](COC)C5)cc(C)c34)C2)c(F)cc1C(=O)NS(=O)(=O)N1CCCC1 [Example 202, (R)-2-ethoxy-5-fluoro-4-(8-(3-(methoxymethyl)-4-methylpiperazin-1-yl)-7,10-dimethyl-5-oxo-1,3,4,5-tetrahydro-2H-chromeno[3,4-c]pyridine-3-carbonyl)-N-(pyrrolidin-1-ylsulfonyl)benzamide]	100 to 1000	10 to 100	H (>9.0 to 30)	10 to 30

Second part, led by results:

IC50 [1] [nM]	IC50 [2] [nM]	MTHFD1/MTHFD2 IC50 ratio [2]	Structure (SMILES)	IC50 (human CD4+ T cells) [nM]
10 to 100	1 to 10	J (>30)	COC[C@H]1CN(c2cc(C)c3c4c(c(=O)oc3c2C)CN(C(=O)c2cc(OC3CC3)c(C(=O)NS(=O)(=O)N3CC5CC5C3)cc2F)CC4)CCN1C (stereo partly drawn) [Example 264, N-((3-azabicyclo[3.1.0]hexan-3-yl)sulfonyl)-2-cyclopropoxy-5-fluoro-4-(8-((R)-3-(methoxymethyl)-4-methylpiperazin-1-yl)-7,10-dimethyl-5-oxo-1,3,4,5-tetrahydro-2H-chromeno[3,4-c]pyridine-3-carbonyl)benzamide]	10 to 30
10 to 100	1 to 10	F (<3)	COC[C@H]1CN(c2cc(C)c3c4c(c(=O)oc3c2C)CN(C(=O)c2ccc(C(=O)NS(=O)(=O)N3CCCC3)c(OC(C)C)c2F)CC4)CCN1C [Example 149, (R)-3-fluoro-2-isopropoxy-4-(8-(3-(methoxymethyl)-4-methylpiperazin-1-yl)-7,10-dimethyl-5-oxo-1,3,4,5-tetrahydro-2H-chromeno[3,4-c]pyridine-3-carbonyl)-N-(pyrrolidin-1-ylsulfonyl)benzamide]	1 to 10
100 to 1000	1 to 10	J (>30)	COC[C@H]1CN(c2cc(C)c3c4c(c(=O)oc3c2C)CN(C(=O)c2cc(N(C)C)c(C(=O)NS(=O)(=O)N3CCC[C@H]3COC)cc2F)CC4)CCN1C [Example 312, 2-(dimethylamino)-5-fluoro-4-(8-((R)-3-(methoxymethyl)-4-methylpiperazin-1-yl)-7,10-dimethyl-5-oxo-1,3,4,5-tetrahydro-2H-chromeno[3,4-c]pyridine-3-carbonyl)-N-(((S)-2-(methoxymethyl)pyrrolidin-1-yl)sulfonyl)benzamide]	10 to 30
100 to 1000	1 to 10	J (>30)	[2H]C([2H])([2H])Oc1cc(C(=O)N2CCc3c(c(=O)oc4c(C)c(N5CCN(C)[C@@H](COC)C5)cc(C)c34)C2)c(F)cc1C(=O)NS(=O)(=O)N1CC2CC2C1 (stereo partly drawn) [Example 251, N-((3-azabicyclo[3.1.0]hexan-3-yl)sulfonyl)-5-fluoro-2-(methoxy-d3)-4-(8-((R)-3-(methoxymethyl)-4-methylpiperazin-1-yl)-7,10-dimethyl-5-oxo-1,3,4,5-tetrahydro-2H-chromeno[3,4-c]pyridine-3-carbonyl)benzamide]	30 to 100
100 to 1000	10 to 100	J (>30)	COC[C@H]1CN(c2cc(C)c3c4c(c(=O)oc3c2C)CN(C(=O)c2cc(N(C)C)c(C(=O)NS(=O)(=O)N3CCC[C@H]3C(F)(F)F)cc2F)CC4)CCN1C [Example 292, 2-(dimethylamino)-5-fluoro-4-(8-((R)-3-(methoxymethyl)-4-methylpiperazin-1-yl)-7,10-dimethyl-5-oxo-1,3,4,5-tetrahydro-2H-chromeno[3,4-c]pyridine-3-carbonyl)-N-(((S)-2-(trifluoromethyl)pyrrolidin-1-yl)sulfonyl)benzamide]	1 to 10
100 to 1000	1 to 10	J (>30)	COC[C@H]1CN(c2cc(C)c3c4c(c(=O)oc3c2C)CN(C(=O)c2cc(OC)c(C(=O)NS(=O)(=O)N3CCCC3)cc2F)CC4)CCN1C [Example 224, (R)-5-fluoro-2-methoxy-4-(8-(3-(methoxymethyl)-4-methylpiperazin-1-yl)-7,10-dimethyl-5-oxo-1,3,4,5-tetrahydro-2H-chromeno[3,4-c]pyridine-3-carbonyl)-N-(pyrrolidin-1-ylsulfonyl)benzamide]	30 to 100
100 to 1000	1 to 10	J (>30)	CCOc1cc(C(=O)N2CCc3c(c(=O)oc4c(C)c(N5CCN(C)[C@@H](COC)C5)cc(Cl)c34)C2)c(F)cc1C(=O)NS(=O)(=O)N1CCCC1 [Example 259, (R)-4-(10-chloro-8-(3-(methoxymethyl)-4-methylpiperazin-1-yl)-7-methyl-5-oxo-1,3,4,5-tetrahydro-2H-chromeno[3,4-c]pyridine-3-carbonyl)-2-ethoxy-5-fluoro-N-(pyrrolidin-1-ylsulfonyl)benzamide]	30 to 100
100 to 1000	10 to 100	H (>9.0 to 30)	COC[C@H]1CN(c2cc(C)c3c4c(c(=O)oc3c2C)CN(C(=O)c2ccc(C(=O)NS(=O)(=O)N3CCCC3)c(OC(F)(F)F)c2F)CC4)CCN1C [Example 169, (R)-3-fluoro-4-(8-(3-(methoxymethyl)-4-methylpiperazin-1-yl)-7,10-dimethyl-5-oxo-1,3,4,5-tetrahydro-2H-chromeno[3,4-c]pyridine-3-carbonyl)-N-(pyrrolidin-1-ylsulfonyl)-2-(trifluoromethoxy)benzamide]	100 to 1000
